Assay results: the supplement of paper PMC10307832

What was measured:
Assay in all cases: relative viability (nuclei count vs DMSO), 5 days (fraction); higher = more cells survive
Carfilzomib + Pemetrexed = compound: CC(C)C[C@H](NC(=O)[C@H](CCc1ccccc1)NC(=O)CN1CCOCC1)C(=O)N[C@@H](Cc1ccccc1)C(=O)N[C@@H](CC(C)C)C(=O)[C@@]1(C)CO1 [Carfilzomib] + Nc1nc2[nH]cc(CCc3ccc(C(=O)N[C@@H](CCC(=O)O)C(=O)O)cc3)c2c(=O)[nH]1 [Pemetrexed] (partner 0.2 µM)
Outline: (§1)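 Relative viability is defined as nuclei in treated wells over nuclei in vehicle wells. Duplicate plates were run and medians reported. Lung cancer cell lines in 1536-well plates were dosed by pin tool one day after seeding, with one drug or with a fixed anchor-drug dose plus five library-drug doses (not always all listed) in √10 steps, and nuclei were counted after 5 days.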

Crizotinib + OSI-027 = compound: C[C@@H](Oc1cc(-c2cnn(C3CCNCC3)c2)cnc1N)c1c(Cl)ccc(F)c1Cl [Crizotinib] + COc1cccc2cc(-c3nc([C@H]4CC[C@H](C(=O)O)CC4)n4ncnc(N)c34)[nH]c12 [OSI-027] (partner 0.5 µM)
Outline: as §1

Crizotinib + Alpelisib = compound: C[C@@H](Oc1cc(-c2cnn(C3CCNCC3)c2)cnc1N)c1c(Cl)ccc(F)c1Cl [Crizotinib] + Cc1nc(NC(=O)N2CCC[C@H]2C(N)=O)sc1-c1ccnc(C(C)(C)C(F)(F)F)c1 [Alpelisib] (partner 2 µM)
Outline: as §1

Olaparib + Linsitinib = compound: O=C(c1cc(Cc2n[nH]c(=O)c3ccccc23)ccc1F)N1CCN(C(=O)C2CC2)CC1 [Olaparib] + C[C@]1(O)C[C@@H](c2nc(-c3ccc4ccc(-c5ccccc5)nc4c3)c3c(N)nccn32)C1 [Linsitinib] (partner 1 µM)
Outline: as §1

Cell Line	relative viability (Carfilzomib + Pemetrexed; first compound 0.001 µM)	relative viability (Carfilzomib + Pemetrexed; first compound 0.003162 µM)	relative viability (Carfilzomib + Pemetrexed; first compound 0.01 µM)	relative viability (Carfilzomib + Pemetrexed; first compound 0.03162 µM)	relative viability (Carfilzomib + Pemetrexed; first compound 0.1 µM)	relative viability (Crizotinib + OSI-027; first compound 0.01 µM)	relative viability (Crizotinib + OSI-027; first compound 0.03162 µM)	relative viability (Crizotinib + OSI-027; first compound 0.1 µM)	relative viability (Crizotinib + OSI-027; first compound 0.3162 µM)	relative viability (Crizotinib + OSI-027; first compound 1 µM)	relative viability (Crizotinib + Alpelisib; first compound 0.01 µM)	relative viability (Crizotinib + Alpelisib; first compound 0.03162 µM)	relative viability (Crizotinib + Alpelisib; first compound 0.1 µM)	relative viability (Crizotinib + Alpelisib; first compound 0.3162 µM)	relative viability (Crizotinib + Alpelisib; first compound 1 µM)	relative viability (Olaparib + Linsitinib; first compound 0.08 µM)	relative viability (Olaparib + Linsitinib; first compound 0.253 µM)	relative viability (Olaparib + Linsitinib; first compound 2.53 µM)	relative viability (Olaparib + Linsitinib; first compound 8 µM)
LK-2	0.304	0.295	0.273	0.0987	0.0939	0.196	0.186	0.166	0.189	0.183	1.14	0.885	0.898	1.3	1.14	0.588	0.691	0.549	0.485
H3255	0.544	0.601	0.578	0.423	0.249	0.6	0.652	0.633	0.509	0.61	0.622	0.73	0.705	0.62	0.639	1.04	0.912	0.932	0.825
NCI-H1355	1.01	1.03	1.08	1	0.282	0.358	0.44	0.394	0.369	0.361	0.832	0.806	0.857	0.849	0.878	0.882	0.811	0.775	0.637
LCLC-103H	0.483	0.459	0.529	0.446	0.404	0.483	0.485	0.361	0.495	0.428	0.917	0.98	1.05	1.13	1.01	1.13	1.07	1.04	0.873
NCI-H838	0.268	0.254	0.246	0.209	0.136	0.348	0.369	0.409	0.393	0.392	0.997		1.03		0.964	1.05	0.928	0.971	0.933
Calu-6											0.944		0.988	0.925	1.06	1.06	0.866	0.824	0.717
BEN	0.743	0.778	0.787	0.599	0.352	0.308	0.3	0.296	0.307	0.286	0.925	0.992	0.864	1.26	1.12	0.89	0.749	1.05	0.982
NCI-H1651	0.561	0.649	0.536	0.197	0.082	0.546	0.852	0.727	0.73	0.8	0.823	0.933	0.858		0.965	1.01	0.821	0.679	0.297
NCI-H2087	0.624	0.656	0.57	0.0837	0.0365	0.442	0.611	0.548		0.327	1.02				1.21	0.984	0.912	0.83	0.685
NCI-H520	0.664	0.712	0.568	0.169	0.131	0.272	0.295	0.24	0.27	0.258	0.726	0.92	0.891	1.07	0.962	1.17	0.825	0.872	0.663
NCI-H460	0.0648	0.0611	0.0649	0.0671	0.0245	0.536	0.931	0.479	0.6	0.708	0.495	0.404	0.46	0.504	0.442	0.86	0.614	0.316	0.191
SK-MES-1	1.02	1.1	1.14	0.786	0.177	0.612	0.646	0.568	0.556	0.586	0.775	0.929	0.79	0.803		1.14	0.996	1.05	0.796
NCI-H661	0.925	0.948	0.902	0.903	0.415	0.606	0.74	0.771	0.711	0.663	0.665	0.684	0.615	0.699	0.725	0.773	0.593	0.518	0.573
NCI-H2342	0.732	0.786	0.853	0.78	0.449	0.652	0.613	0.623	0.509	0.547									
A549											0.657	0.804	0.738	0.677	0.793	0.761	0.567	0.588	0.436
EBC-1											0.746	0.823	0.543	0.202	0.269	1.07	0.824	0.848	0.751
NCI-H1650	0.343	0.403	0.312	0.154	0.166	0.554	0.624	0.585	0.54	0.569									
NCI-H1299											1.12	1.03	0.999	1.13	1	1	0.945	0.966	0.943
NCI-H522	1.19	0.906	0.963	0.717	0.339	0.672	0.718	0.702	0.739	0.701									
SW 900		0.497	0.176	0.152	0.216	0.499	0.507	0.581	0.509	0.568									
ChaGo-K-1	0.27	0.258	0.258	0.262	0.179	0.438	0.675	0.502	0.435	0.53									
NCI-H727							0.561	0.774		0.551	0.655	0.575	0.583	0.674	0.685	0.283	0.241	0.247	0.282
